Reference: patent publication US7312248B2, “Control of parasites in animals by the use of novel trifluoromethanesulfonanilide oxime ether derivatives” (Schering-Plough Animal Health Corporation, priority 2004, dated 2007)
Like-named read-outs stand apart in the source and are kept apart here.

How the values were obtained:
Format in all cases: in vivo
[1] = tested on: cat flea (Ctenocephalides felis); experiment: Ctenocephalides felis adulticide assay: dose response (LC50)
Text: c) Ctenocephalides felis Adulticide Assay: C. felis Dose Response
The purpose of this example was to determine the LC50 when cat fleas were contacted with a glass surface treated with sample compounds or formulations prepared as described above. Mortality of fleas was defined as follows: fleas were considered dead if they didn't move or were on their sides and unable to walk or right themselves. LC50: Lethal Concentration 50—concentration of glass surface treatment at which 50% of the cat fleas were killed. The test species was the cat flea (Ctenocephalides felis). The strain used was obtained from external suppliers as pupae and held in the laboratory under testing conditions until the adults had emerged. Fifteen (15) fleas were used in a minimum of four replicates for each dose level (total of 60 fleas per dose level). The insects were selected to be in the adult life stage, aged between 3 and 7 days post emergence.
The compounds to be tested were dissolved in acetone just prior to testing. Samples of compounds were stored in a refrigerator (5±1° C.) unless otherwise specified. During the mortality testing, the temperature was maintained at 25+1° C. Humidity was maintained at 75±5%. The base (area=159 mm^2) of a 100 mL glass Erlenmeyer (conical) flask provided the treatment surface. Flasks were pretreated with Coatasil™ glass treatment to maximise bio-availability of test compounds by preventing them from binding to the glass surface.
Six dose levels (concentrations) of test sample, in the form of a serial dilution, were derived from a pilot study and covered a range that produced very low to very high mortality. The base of the 100 mL Erlenmeyer flask was treated with 0.5 mL of test sample in acetone and gently swirled. This volume was sufficient to cover the base of the flask. Flasks were left to dry for 24 hours before flea exposure. Adult cat fleas were lightly anaesthetised by cooling and then placed into a sorting chamber, which allowed fleas to revive and jump into the Erlenmeyer flasks. Fifteen (15)adult cat fleas were collected in each flask. The top of the flasks were then covered in Parafilm™ and small holes made to allow gas exchange. A 0.5 mL volume of acetone was applied to the base of an Erlenmeyer flask and the testing proceeded in the same manner described above. Cat fleas in the treatment containers were held under testing conditions for 24 hours. Mortality resulting from the treatments was recorded at 8 and 24 hours.

[2] = tested on: cat flea (Ctenocephalides felis); experiment: whole plant or invertebrate; details: Ctenocephalides felis
Summary of the method: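 Adult C. felis (3-7 days post-emergence; 15 per flask, at least 4 replicates) exposed to a glass flask base dried 24 h after coating with compound in acetone at 1.26 μg/cm^2. Held at 25±1 °C, 75±5% humidity; mortality (immobile or unable to right) scored at 8, 24 and/or 48 h as percentage.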

[3] = tested on: Brown Dog Tick (Rhipicephalus sanguineus); experiment: Dose response protocol for topical application on brown dog ticks (LD50); details: 24 h mortality
Method: e) Dose response protocol for topical application on brown dog ticks (Rhipicephalus sanguineus): The test determines the level of insecticidal activity of sample compounds or formulations when applied topically on brown dog ticks. Sample compounds were stored prior to use in a freezer (−5±1° C.), unless otherwise specified.
• Mortality: A tick is defined as dead after it gives no apparent response when touched lightly or gently breathed upon, while observed for 30 seconds. • LD50 (Lethal Dose 50): The dose of a topically applied treatment at which 50% of the dog ticks are killed. • Reference compound: To assess an experimental compound for significant acaricidal activity a single dose level is chosen, which is based upon known results from previous experiments using a commercially available active i.e., a reference compound. The reference compound selected is one in common use, and one that has a similar mode of action against the Brown Dog Tick (i.e., the test species). • Recovery container: A recovery container consists of a 500 ml round plastic container measuring 115 mm diameter and 70 mm height, with a tight fitting lid that has 10 small (˜1 mm) holes inserted for air exchange. A 90 mm diameter piece of filter paper was placed on the bottom of the container and moistened with 1 mL of de-stilled water.
Adult, mixed sex, Brown Dog Ticks (Rhipicephalus sanguineus) were reared as follows: (i) cultured, (ii) transferred unfed, to a testing laboratory, and (iii) then maintained under controlled conditions (i.e., temp. 18°±2° C., humidity 75±5% RH). The ticks used were selected for vigor prior to testing, i.e., capable of actively walking and responsive to being touched or gently breathed upon.
During the testing, the temperature was maintained at 25±1° C., and the humidity was ambient. Seven dose levels (concentrations) of sample compound, in the form of serial dilutions in acetone, were derived from a pilot study and covered a range that produced very low to very high mortality. Groups of ten ticks were treated topically (on the abdomen) with 1 μL of a single dose level of the sample compound. Each test was replicated four times, i.e., employing a total of 40 ticks per dose level of each sample compound. As a control, ten ticks were treated with solvent only (acetone) for each test. Following the treatment, the ticks were held in recovery containers maintained under appropriate rearing conditions for 24 hours. Mortality resulting from the treatments was recorded at 24 hours. […] Press, London (1971).]

[4] = tested on: Brown Dog Tick (Rhipicephalus sanguineus); experiment: Rapid screening protocol for topical application on brown dog ticks; details: for R. sanguineus Mortality (%) 48 h: Laboratory 2 F data; for Rhipicephalus sanguineus Mortality (%) 24 h: 10 μg of active per tick in 1 μL acetone, adult ticks, Laboratory 1 E data
Method: d) Rapid Screening Protocol for Topical Application on Brown Dog Ticks (Rhipicephalus sanguineus)
The aim of the test was to determine the presence of significant acaricidal activity in sample compounds or formulations when applied topically on brown dog ticks. A tick was defined as dead if it gave no apparent response when touched lightly and observed for 1 minute. […] Both permethrin and fipronil were employed as reference compounds. The insect species tested was the Brown Dog Tick (Rhipicephalus sanguineus). Mixed sex adult ticks were used for tests. The strain used was cultured by von Berky Veterinary Services, Woody Point, QLD, AU and supplied as unfed adult ticks (mixed sex). Ticks were maintained in controlled conditions (temp. 18°+2° C., humidity 75±5% RH).
Temperature was maintained at 25±1° C. and the humidity was ambient. […] Ticks were each treated on the abdomen with 1 μL of a single dose level of test sample in acetone; ten ticks were treated with solvent only (acetone) in each test. Tests were replicated 4 times (total of 40 ticks treated). […]

Haemonchus contortus = Haemonchus contortus larvacidal (larval development) assay; details: 144 h, read-out: Haemonchus contortus LD99
Summary of the method: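 Nematode eggs placed on agar containing compound (12 two-fold dilutions, final 0.024–50 μg/ml) and left 6 days to develop to L3. LD99 is the lowest concentration inhibiting development of 99% of larvae, derived from well titre (2^n−1) and top concentration.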

[5] = 24 h, read-out: C. felis Mortality (%) 24 h, 24 h, Laboratory 2 B data
[6] = 8 h, read-out: C. felis Mortality (%) 8 h, 8 h, Laboratory 1 A data
[7] = 24 h, read-out: C. felis Mortality (%) 24 h, 24 h, Laboratory 1 A data
[8] = 8 h, read-out: C. felis Mortality (%) 8 h, 8 h, Laboratory 2 B data
[9] = 24 h, read-out: Ctenocephalides felis Mortality (%) 24 h

SMILES | mortality at 1.26 µg/cm2, 1.26 µg/cm2 [2, 5] | C. felis LC50 ([1]; Laboratory 1 C data) | mortality at 1.26 µg/cm2, 1.26 µg/cm2 [2, 7] | R. sanguineus Mortality (%) 48 h [4] | IC99 (Haemonchus contortus) | mortality at 1.26 µg/cm2, 1.26 µg/cm2 [2, 8] | other results
CCC(C)O/N=C(\C)c1cc(Cl)ccc1NS(=O)(=O)C(F)(F)F (stereo not shown) [Compound 242] | 100% | – | – | – | – | – | C. felis LC50 ([1]; Laboratory 2 D data): 0.1^D μg/cm^2; mortality at 1.26 µg/cm2, 1.26 µg/cm2 ([2]; 48 h, read-out: C. felis Mortality (%) 48 h, 48 h, Laboratory 2 B data): 100%; R. sanguineus LD50 [3]: 3.1 μg/tick
CC/C(=N\OCc1ccccc1C(F)(F)F)c1cc(Cl)ccc1NS(=O)(=O)C(F)(F)F [Compound 6] | – | 0.1 μg/cm^2 | 96% | 82% | 1.3 µg/mL | – | C. felis LC50 ([1]; Laboratory 2 D data): 0.03 μg/cm^2; mortality at 1.26 µg/cm2, 1.26 µg/cm2 [2, 6]: 69%
CC/C(=N\OCC1CCCCC1)c1cc(Cl)ccc1NS(=O)(=O)C(F)(F)F [Compound 104, N-[4-chloro-2-(1-cyclohexylmethoxyiminopropyl)phenyl]trifluoromethanesulfonamide] | – | 0.3 μg/cm^2 | 100% | 100% | 10 µg/mL | – | C. felis LC50 ([1]; Laboratory 2 D data): 1.6 μg/cm^2
CC/C(=N\OCc1ccc(Br)cc1)c1cc(Cl)ccc1NS(=O)(=O)C(F)(F)F [Compound 75] | – | 0.3 μg/cm^2 | 78% | 77% | 0.9 µg/mL | – | mortality at 1.26 µg/cm2, 1.26 µg/cm2 [2, 6]: 37%
CC/C(=N\OCc1ccc(C(F)(F)F)cc1C(F)(F)F)c1cc(Cl)ccc1NS(=O)(=O)C(F)(F)F [Compound 76, N-{2-[1-(2,4-bistrifluoromethylbenzyloxyimino)propyl]-4-chlorophenyl}trifluoromethanesulfonamide] | – | 0.2 μg/cm^2 | – | 80% | 0.3 µg/mL | – | C. felis LC50 ([1]; Laboratory 2 D data): 0.05 μg/cm^2; mortality at 1.26 µg/cm2, 1.26 µg/cm2 [2, 6]: 100%
C/C(=N\Oc1cccc(Cl)c1)c1cc(Cl)ccc1NS(=O)(=O)C(F)(F)F [Compound 132] | – | 0.2 μg/cm^2 | 100% | 80% | 1.6 µg/mL | – | –
O=S(=O)(Nc1ccc(Cl)cc1/C(=N/OC1CCCC1)C1CCCCC1)C(F)(F)F [Compound 211] | 100% | – | – | 90% | – | 46% | –
CC/C(=N\OCC1CCCCC1)c1ccc(C(F)(F)F)cc1NS(=O)(=O)C(F)(F)F [Compound 222] | 96% | – | – | 32% | – | 27% | –
O=S(=O)(Nc1ccc(Cl)cc1/C(=N/OCC1CCCCC1)C1CCCCC1)C(F)(F)F [Compound 209] | 93% | – | – | 22% | – | 38% | –
O=S(=O)(Nc1ccc(Cl)cc1-c1ccon1)C(F)(F)F [Compound 293] | – | – | – | – | – | – | mortality at 1.26 µg/cm2 ([2]; 8 h, read-out: Ctenocephalides felis Mortality (%) 8 h): 60%; mortality at 1.26 µg/cm2 [2, 9]: 100%; Rhipicephalus sanguineus Mortality (%) 24 h ([4]; 24 h, topical): 80%
CC/C(=N\Oc1ccc(Cl)cc1)c1cc(Cl)ccc1NS(=O)(=O)C(F)(F)F [Compound 128, N-{4-chloro-2-[1-(4-chlorophenoxyimino)propyl]phenyl}trifluoromethanesulfonamide] | – | 0.08 μg/cm^2 | 100% | 85% | 0.4 µg/mL | – | C. felis LC50 ([1]; Laboratory 2 D data): 0.05 μg/cm^2
CC(C)/C(=N\Oc1ccc(F)cc1)c1cc(Cl)ccc1NS(=O)(=O)C(F)(F)F [Compound 216] | 100% | – | – | 72% | – | 97% | –
O=S(=O)(Nc1ccc(Cl)cc1/C(=N/OC1CCCCC1)C1CCCCC1)C(F)(F)F [Compound 212] | 100% | – | – | 57% | – | 24% | –
C/C(=N\Oc1ccc(Cl)cc1)c1ccc(C(F)(F)F)cc1NS(=O)(=O)C(F)(F)F [Compound 199, N-{2-[1-(4-chlorophenoxyimino)ethyl]-5-trifluoromethylphenyl}trifluoromethanesulfonamide] | 100% | – | – | 5% | – | 82% | –
CC/C(=N\OCc1ccccn1)c1cc(Cl)ccc1NS(=O)(=O)C(F)(F)F [Compound 204] | 100% | – | – | 87% | – | 100% | –
CC/C(=N\OCc1ccc(Cl)cc1)c1cc(Cl)ccc1N(COC(=O)C(C)(C)C)S(=O)(=O)C(F)(F)F [Compound 303] | – | – | – | – | – | – | mortality at 1.26 µg/cm2 [2, 9]: 0%; mortality at 1.26 µg/cm2 ([2]; 48 h, read-out: Ctenocephalides felis Mortality (%) 48 h): 76%; Rhipicephalus sanguineus Mortality (%) 24 h ([4]; 24 h, topical): 2%
CCC(O/N=C(\C)c1cc(Cl)ccc1NS(=O)(=O)C(F)(F)F)c1ccccc1 (stereo not shown) [Compound 255] | 100% | – | – | – | – | 1% | mortality at 5 µg/tick ([4]; Rhipicephalus sanguineus, topical, 24 h, read-out: R. sanguineus Mortality (%) 24 h): 22%
CC/C(=N\OCCOC)c1cc(Cl)ccc1NS(=O)(=O)C(F)(F)F [Compound 183] | 100% | – | – | 100% | – | 100% | –
C/C(=N\OCC1CCCCC1)c1ccc(C(F)(F)F)cc1NS(=O)(=O)C(F)(F)F [Compound 217] | 90% | – | – | 30% | – | 46% | –
CCO/N=C(\c1ccccc1)c1cc(Cl)ccc1NS(=O)(=O)C(F)(F)F [Compound 178, N-[4-chloro-2-(ethoxyiminophenylmethyl)phenyl]trifluoromethanesulfonamide] | – | 0.3 μg/cm^2 | 96% | 85% | – | – | –
